Key:
KPC-2 = KPC-2 (Klebsiella pneumoniae, UniProt Q9F663); assay: Ki, nitrocefin cleavage by purified enzyme, KPC-2; type: biochemical; conditions: nitrocefin reporter substrate; read-out: Ki (KPC-2, NCF)
Protocol: (§1) Purified enzymes were mixed with various concentrations of inhibitors in reaction buffer and incubated for 10 min at room temperature. Nitrocefin was added and substrate cleavage profiles were recorded at 490 nm every 10 sec for 10 min.

ECL1002 [1] = assay: Tigemonam potentiation (MPC@4), ECL1002; type: cell-based; conditions: BLI with tigemonam at 4 μg/mL
Pa AmpC = Pa AmpC (Pseudomonas aeruginosa, UniProt P24735); assay: Ki, nitrocefin cleavage by purified enzyme, Pa AmpC; type: biochemical; conditions: nitrocefin reporter substrate; read-out: Ki (Pa AmpC, NCF)
Pa AmpC, sequence (P24735 27-397): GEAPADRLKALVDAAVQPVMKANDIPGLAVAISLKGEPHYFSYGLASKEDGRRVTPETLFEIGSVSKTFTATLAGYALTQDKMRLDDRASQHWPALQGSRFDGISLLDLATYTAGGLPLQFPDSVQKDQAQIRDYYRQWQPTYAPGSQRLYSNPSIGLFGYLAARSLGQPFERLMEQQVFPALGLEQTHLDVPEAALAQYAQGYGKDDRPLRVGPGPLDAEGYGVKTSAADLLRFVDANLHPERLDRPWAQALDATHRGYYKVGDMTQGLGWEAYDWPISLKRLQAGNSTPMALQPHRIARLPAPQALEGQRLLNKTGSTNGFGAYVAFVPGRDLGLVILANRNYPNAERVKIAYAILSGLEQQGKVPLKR
Protocol: Ki values of inhibition of purified class A, C and D enzymes were determined spectrophotometrically using nitrocefin as reporter substrate. Purified enzymes were mixed with various concentrations of inhibitors in reaction buffer and incubated for 10 min at room temperature. Nitrocefin was added and substrate cleavage profiles were recorded at 490 nm every 10 sec for 10 min. These experiments confirmed that the described compounds are inhibitors with a broad-spectrum of activity towards various β-lactamases.

ECL1002 [2] = assay: Aztreonam potentiation (MPC@4), ECL1002; type: cell-based; conditions: BLI with aztreonam at 4 μg/mL
[3] = Monomer content of pH adjusted aqueous solutions (LC-UV); type: physicochemical; conditions: pH adjusted to 7.6 to 8, LC-UV; for % Monomer in 1 mg/mL salt solution: 1 mg/mL aqueous salt solution
Protocol: Boronic acid containing compounds are known to undergo oligomerization. The presence of oligomers can greatly complicate drug development, as they represent new chemical species whose content must be controlled and qualified by testing in toxoicology studies. The monomer content of compounds was evaluated by adjusting aqueous solutions to physiological pH at various concentrations. The monomer content of pH adjusted solutions was measured using LC-UV. Test compounds were weighed out into a 1.5 mL Eppendorf tube. A solution of water was prepared in 1.00 mg/mL, 10.0 mg/mL or 100 mg/mL concentrations of the compound based on active fraction. A volume 20 uL was subtracted to allow room for addition of acid or base to adjust pH. The solution pH was measured. The pH was then adjusted through addition of acid or base as necessary until the reading was in the 7.6 to 8 range. A final pH measurement was made after ensuring all the compound was in solution. The solution was injected onto LC-UV in 0.1 uL to 5 uL volume within less than half an hour after the time the sample was prepared. Elution was done using 0.1% TFA in water for mobile phase A and 0.085% TFA in methanol for mobile phase B on an Excel ACE 5 Super C18 2.1×100 mm column at 0.6 ml/min flow rate with 9 min gradient, 3.9 minute hold at 90% B and 18 minute run time. The absorption was measured at 220, 254 and 300 nm with a 4 nm bandwidth.

KP1009 (CTX-M-15) = assay: Tigemonam potentiation (MPC@4), KP1009; type: cell-based; conditions: BLI with tigemonam at 4 μg/mL
OXA-48 = OXA-48 (Klebsiella pneumoniae, UniProt Q6XEC0); assay: Ki, nitrocefin cleavage by purified enzyme, OXA-48; type: biochemical; conditions: nitrocefin reporter substrate; read-out: Ki (OXA-48, NCF)
OXA-48, sequence (Q6XEC0 23-265, looked up, species assumed): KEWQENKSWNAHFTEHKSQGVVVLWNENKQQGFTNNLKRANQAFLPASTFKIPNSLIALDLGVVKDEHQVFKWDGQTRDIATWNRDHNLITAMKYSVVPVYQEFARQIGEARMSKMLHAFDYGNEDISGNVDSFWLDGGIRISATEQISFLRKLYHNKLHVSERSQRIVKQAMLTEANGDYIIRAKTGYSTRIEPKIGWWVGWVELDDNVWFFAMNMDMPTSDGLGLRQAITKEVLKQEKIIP
Protocol: as §1

EC1010 (CMY-6) [4] = assay: organism not typed; type: cell-based
ec308 (SHV-5) = assay: Tigemonam potentiation (MPC@4), ec308; type: cell-based
SHV-12 = SHV-12 (Klebsiella pneumoniae, UniProt P0AD64, E235K/G234S/L31Q); assay: Ki, nitrocefin cleavage by purified enzyme, SHV-12; type: biochemical; conditions: nitrocefin reporter substrate; read-out: Ki (SHV-12, NCF)
SHV-12, sequence (P0AD64 22-286 L31Q/G234S/E235K): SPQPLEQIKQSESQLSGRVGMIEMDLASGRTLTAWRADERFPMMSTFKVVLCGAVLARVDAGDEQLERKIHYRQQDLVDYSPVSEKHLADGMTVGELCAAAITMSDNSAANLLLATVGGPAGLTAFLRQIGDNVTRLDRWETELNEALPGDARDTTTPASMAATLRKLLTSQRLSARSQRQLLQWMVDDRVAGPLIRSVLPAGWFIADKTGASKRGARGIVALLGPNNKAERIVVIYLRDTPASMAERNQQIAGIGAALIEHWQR
Protocol: as §1

KP1086 (OXA-48) = assay: Biapenem potentiation (MPC@1), KP1086; conditions: BLI with biapenem at 1 μg/mL
P99 = P99 (Enterobacter cloacae, UniProt P05364); assay: Ki, nitrocefin cleavage by purified enzyme, P99; type: biochemical; conditions: nitrocefin reporter substrate; read-out: Ki (P99, NCF)
P99, sequence (P05364 21-381): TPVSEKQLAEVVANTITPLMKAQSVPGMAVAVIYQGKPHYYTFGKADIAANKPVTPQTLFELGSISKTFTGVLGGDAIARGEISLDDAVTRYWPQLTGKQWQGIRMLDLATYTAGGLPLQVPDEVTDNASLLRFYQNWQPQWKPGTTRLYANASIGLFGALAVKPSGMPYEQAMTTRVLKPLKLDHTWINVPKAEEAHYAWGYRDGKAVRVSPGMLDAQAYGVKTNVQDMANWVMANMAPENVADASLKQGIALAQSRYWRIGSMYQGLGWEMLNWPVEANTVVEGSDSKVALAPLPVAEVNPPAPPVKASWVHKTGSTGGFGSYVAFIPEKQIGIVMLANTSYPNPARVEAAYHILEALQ
Protocol: as §1

ec302 (TEM-10) [5] = assay: Tigemonam potentiation (MPC@4), ec302; type: cell-based
KP1004 (KPC-2) = assay: Biapenem potentiation (MPC@1), KP1004; conditions: BLI with biapenem at 1 μg/mL
EC1010 (CMY-6) [6] = assay: Tigemonam potentiation (MPC@4), EC1010; type: cell-based; conditions: BLI with tigemonam at 4 μg/mL
ec302 (TEM-10) [7] = assay: Aztreonam potentiation (MPC@4), ec302; type: cell-based; conditions: BLI with aztreonam at 4 μg/mL
KP1005 (CTX-M-14) = assay: Tigemonam potentiation (MPC@4), KP1005; type: cell-based; conditions: BLI with tigemonam at 4 μg/mL
CTX-M-14 = CTX-M-14 (Escherichia coli, UniProt Q9L5C7); assay: Ki, nitrocefin cleavage by purified enzyme, CTX-M-14; type: biochemical; conditions: nitrocefin reporter substrate; read-out: Ki (CTX-M-14, NCF)
CTX-M-14, sequence (Q9L5C7 29-291): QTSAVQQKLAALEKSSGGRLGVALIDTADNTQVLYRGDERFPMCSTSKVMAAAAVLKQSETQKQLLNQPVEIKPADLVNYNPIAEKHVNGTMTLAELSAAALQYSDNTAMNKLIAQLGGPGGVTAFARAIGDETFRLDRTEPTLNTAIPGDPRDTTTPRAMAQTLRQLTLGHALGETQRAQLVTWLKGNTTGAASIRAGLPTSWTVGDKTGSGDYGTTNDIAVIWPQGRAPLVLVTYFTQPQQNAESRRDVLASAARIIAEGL
Protocol: as §1

KP1010 (SHV-12) = assay: Tigemonam potentiation (MPC@4), KP1010; type: cell-based
[8] = Serum stability of prodrugs, rat serum; type: in vitro ADME; conditions: theoretical initial conc. 20 ug/mL; for Measured Initial Conc. in Serum: 37 degrees; for Conc. at t = 1 hr / Conc. at t = 3 hr: prodrug
Protocol: (§2) Prodrug strategy is one of the ways to achieve or increase oral bioavailability for therapeutic drugs. […] After a prodrug molecule is absorbed into systemic circulation, it should be hydrolyzed in the blood in order to release the active form. Hydrolysis of several prodrugs by rat and human serum were evaluated.
(§3) For all stability experiments the test compounds were treated with rat or human serum in Eppendorf tubes. Typically, 992 μl of serum was prewarmed at 37 degrees for 2 minutes and then 8 μl of a compound (at 5 mg/ml, 125×) was added to it to get a final concentration of […] and immediately mixed. Alternatively, serum stability might be tested at 1 mg/ml. […] After vortexing for 30 seconds, the tube was centrifuged in a microcentrifuge for 10 minutes at 15K rpm. Next, 100 μl of the supernatant was combined with 600 μl of water and injected on LC-MS using 0.1% formic acid in water for mobile phase A and 0.1% formic acid in methanol for mobile phase B on an ACE 5 C18 2.1×100 mm column with a 10 μL injection. The flow rate and gradient were adjusted as needed to give the desired resolution and run time. The pH of the mobile phase was adjusted if needed to improve the chromatography.
(§4) The time course of both the disappearance of a prodrug and the appearance of the active form of that prodrug is presented in Table 6 and Table 7. The active metabolites for all of the listed prodrugs are corresponding parent drugs

[9] = Serum stability of prodrugs, human serum; type: in vitro ADME; conditions: theoretical initial conc. 20 ug/mL; for Measured Initial Conc. in Serum: 37 degrees; for Conc. at t = 1 hr: prodrug
[10] = Serum stability of prodrugs, human serum; type: in vitro ADME; conditions: human serum; prodrug; theoretical initial conc. 20 ug/mL
Protocol: as §2, §3, §4

KPC-2, sequence (Q9F663 25-293, looked up, species assumed): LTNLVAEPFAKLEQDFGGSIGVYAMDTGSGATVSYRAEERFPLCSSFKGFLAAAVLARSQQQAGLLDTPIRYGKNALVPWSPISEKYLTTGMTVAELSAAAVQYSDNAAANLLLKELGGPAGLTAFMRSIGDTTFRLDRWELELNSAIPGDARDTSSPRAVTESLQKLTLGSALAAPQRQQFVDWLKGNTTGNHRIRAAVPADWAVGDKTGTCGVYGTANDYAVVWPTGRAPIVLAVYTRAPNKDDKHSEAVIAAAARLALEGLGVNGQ

Structure (SMILES)	Ki (KPC-2) [nM]	TIG MPC4 ECL1002 (ECL1002 [1])	Ki (Pa AmpC) [nM]	AZT MPC4 ECL1002 (ECL1002 [2])	% Monomer in 1 mg/mL salt solution [3] [%]	TIG MPC4 CTX-M-15 KP1009 (KP1009 (CTX-M-15))	Ki (OXA-48) [nM]	AZT MPC4 CMY-6 EC1010 (EC1010 (CMY-6) [4])	TIG MPC4 SHV-5 ec308 (ec308 (SHV-5))	Ki (SHV-12) [nM]	BPM MPC1 OXA-48 KP1086 (KP1086 (OXA-48))	Ki (P99) [nM]	TIG MPC4 TEM-10 ec302 (ec302 (TEM-10) [5])	BPM MPC1 KP1004 KPC-2 (KP1004 (KPC-2))	TIG MPC4 CMY-6 EC1010 (EC1010 (CMY-6) [6])	AZT MPC4 TEM-10 ec302 (ec302 (TEM-10) [7])	TIG MPC4 CTX-M-14 KP1005 (KP1005 (CTX-M-14))	Ki (CTX-M-14) [nM]	TIG MPC4 SHV-12 KP1010 (KP1010 (SHV-12))	Measured Initial Conc. in Serum [8] [µg/mL]	further results
NC(=O)CC(=O)N[C@H]1Cc2ccc(F)c(C(=O)O)c2OB1O [Compound 5, (R)-3-(3-amino-3-oxopropanamido)-7-fluoro-2-hydroxy-3,4-dihydro-2H-benzo[e][1,2]oxaborinine-8-carboxylic acid]	> 10	X (MIC of less than 1 μg/mL)	> 10	Y (MIC of 1 μg/mL to 10 μg/mL)	98.5	X (MIC of less than 1 μg/mL)	< 1	Y (key: X: MIC of less than 1 ng/mL; Y: MIC of 1 μg/mL to 10 μg/mL; Z: MIC of greater than 10 μg/mL)	X (key: X: MIC of less than 1 μg/mL; Y: MIC of 1 μg/mL to 10 μg/mL; Z: MIC of greater than 10 μg/mL)	< 1	Y (MIC of 1 μg/mL to 10 μg/mL)	> 10	Z (key: X: MIC of less than 1 ng/mL; Y: MIC of 1 μg/mL to 10 μg/mL; Z: MIC of greater than 10 μg/mL)	X (MIC of less than 1 μg/mL)	X (MIC of less than 1 μg/mL)	Y (MIC of 1 μg/mL to 10 μg/mL)	Y (MIC of 1 μg/mL to 10 μg/mL)	< 1	X (key: X: MIC of less than 1 μg/mL; Y: MIC of 1 μg/mL to 10 μg/mL; Z: MIC of greater than 10 μg/mL)		
CSCC(=O)N[C@H]1Cc2ccc(SC)c(C(=O)O)c2OB1O [Compound 10, (R)-2-hydroxy-7-(methylthio)-3-(2-(methylthio)acetamido)-3,4-dihydro-2H-benzo[e][1,2]oxaborinine-8-carboxylic acid]	> 10	X (MIC of less than 1 μg/mL)		Y (MIC of 1 μg/mL to 10 μg/mL)	87.5	X (MIC of less than 1 μg/mL)	1 to 10	Y (key: X: MIC of less than 1 ng/mL; Y: MIC of 1 μg/mL to 10 μg/mL; Z: MIC of greater than 10 μg/mL)	X (key: X: MIC of less than 1 μg/mL; Y: MIC of 1 μg/mL to 10 μg/mL; Z: MIC of greater than 10 μg/mL)	< 1	Z (MIC of greater than 10 μg/mL)	> 10	Y (key: X: MIC of less than 1 ng/mL; Y: MIC of 1 μg/mL to 10 μg/mL; Z: MIC of greater than 10 μg/mL)	X (MIC of less than 1 μg/mL)	X (MIC of less than 1 μg/mL)	Y (MIC of 1 μg/mL to 10 μg/mL)	Y (MIC of 1 μg/mL to 10 μg/mL)	< 1	X (key: X: MIC of less than 1 μg/mL; Y: MIC of 1 μg/mL to 10 μg/mL; Z: MIC of greater than 10 μg/mL)		
COc1ccc2c(c1C(=O)O)OB(O)[C@@H](NC(=O)CSC)C2 [Compound 12, (R)-2-hydroxy-7-methoxy-3-(2-(methylthio)acetamido)-3,4-dihydro-2H-benzo[e][1,2]oxaborinine-8-carboxylic acid]	> 10	X (MIC of less than 1 μg/mL)	> 10		98.2	X (MIC of less than 1 μg/mL)	< 1		X (key: X: MIC of less than 1 μg/mL; Y: MIC of 1 μg/mL to 10 μg/mL; Z: MIC of greater than 10 μg/mL)	< 1	Y (MIC of 1 μg/mL to 10 μg/mL)	> 10	Y (key: X: MIC of less than 1 ng/mL; Y: MIC of 1 μg/mL to 10 μg/mL; Z: MIC of greater than 10 μg/mL)	X (MIC of less than 1 μg/mL)	X (MIC of less than 1 μg/mL)	X (MIC of less than 1 ng/mL)	X (MIC of less than 1 μg/mL)	< 1	X (key: X: MIC of less than 1 μg/mL; Y: MIC of 1 μg/mL to 10 μg/mL; Z: MIC of greater than 10 μg/mL)		% Monomer in 10 mg/mL salt solution ([3]; 10 mg/mL aqueous salt solution): 95.5%; % Monomer in 100 mg/mL salt solution ([3]; 100 mg/mL aqueous salt solution): 96.5%
CSCC(=O)N[C@H]1Cc2cc(F)c(F)c(C(=O)OCOC(=O)C(C)C)c2OB1O [Compound 45, 2-methylpropanoyloxymethyl(3R)-6,7-difluoro-2-hydroxy-3-[(2-methylsulfanylacetyl)amino]-3,4-dihydro-1,2-benzoxaborinine-8-carboxylate]																				18.6	Conc. at t = 1 hr [8]: 8850 ng/mL; Conc. at t = 3 hr [8]: 420 ng/mL; Measured Initial Conc. in Serum [9]: 18.4 µg/mL; Conc. at t = 1 hr [9]: 4830 ng/mL; Conc. at t = 3 hr [10]: 580 ng/mL
CSCC(=O)N[C@H]1Cc2cc(Cl)c(F)c(C(=O)OCOC(=O)C(C)C)c2OB1O [Compound 46, 2-methylpropanoyloxymethyl(3R)-6-chloro-7-fluoro-2-hydroxy-3-[(2-methylsulfanylacetyl)amino]-3,4-dihydro-1,2-benzoxaborinine-8-carboxylate]																				18.7	Conc. at t = 1 hr [8]: 8290 ng/mL; Conc. at t = 3 hr [8]: 410 ng/mL; Measured Initial Conc. in Serum [9]: 19.1 µg/mL; Conc. at t = 1 hr [9]: 6220 ng/mL; Conc. at t = 3 hr [10]: 1010 ng/mL

Source: patent publication US9963467B2, “Boronic acid derivatives and therapeutic uses thereof” (Rempex Pharmaceuticals, Inc., priority 2014, dated 2018)
